Where no end group is shown, it is not given here.
Legend:
[1] = molecular target: T1, NPR-11 (Caenorhabditis elegans, UniProt Q18179); experiment: NanoBRET displacement binding assay, Nluc-NPR-11 wild type; parameters: species or system C. elegans
T1 sequence (Q18179 1-402): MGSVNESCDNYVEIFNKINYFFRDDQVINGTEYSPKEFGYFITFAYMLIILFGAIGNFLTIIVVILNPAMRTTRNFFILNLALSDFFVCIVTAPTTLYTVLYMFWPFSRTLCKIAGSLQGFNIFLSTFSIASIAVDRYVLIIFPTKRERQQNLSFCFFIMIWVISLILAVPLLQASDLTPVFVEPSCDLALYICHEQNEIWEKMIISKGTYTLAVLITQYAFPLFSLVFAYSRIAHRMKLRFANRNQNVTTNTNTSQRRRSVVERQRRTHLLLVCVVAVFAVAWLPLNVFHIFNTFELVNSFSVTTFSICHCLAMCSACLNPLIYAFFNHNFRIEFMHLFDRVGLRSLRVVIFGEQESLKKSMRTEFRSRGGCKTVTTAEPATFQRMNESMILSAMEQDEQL

[2] = molecular target: NPR-11 mutants (Caenorhabditis elegans, UniProt Q18179, Q119A); experiment: cAMP reporter gene assay; assay type: cell-based, C. elegans
[3] = molecular target: T1, NPR-11; experiment: cAMP reporter gene assay; assay type: cell-based, C. elegans
[4] = molecular target: T2, NPR-1 (Caenorhabditis elegans, UniProt Q18534); experiment: cAMP reporter gene assay; assay type: cell-based, C. elegans; conditions: wild type NPR-1
T2 sequence (Q18534 1-457): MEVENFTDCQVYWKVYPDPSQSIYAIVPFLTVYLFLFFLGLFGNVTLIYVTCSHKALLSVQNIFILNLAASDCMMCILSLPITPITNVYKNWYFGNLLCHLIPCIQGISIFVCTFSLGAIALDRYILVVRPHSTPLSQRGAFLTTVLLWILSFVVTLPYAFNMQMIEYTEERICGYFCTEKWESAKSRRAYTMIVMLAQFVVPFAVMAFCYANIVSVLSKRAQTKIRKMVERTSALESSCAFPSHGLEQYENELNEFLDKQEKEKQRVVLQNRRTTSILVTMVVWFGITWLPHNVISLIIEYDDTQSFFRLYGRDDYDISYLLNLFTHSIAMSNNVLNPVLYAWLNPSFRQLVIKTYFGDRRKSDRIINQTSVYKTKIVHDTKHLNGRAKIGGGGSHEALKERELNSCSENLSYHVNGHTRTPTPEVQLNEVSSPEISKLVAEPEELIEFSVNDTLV

[5] = molecular target: Q^3.32A variant of NPR-11 (Caenorhabditis elegans, UniProt Q18179, Q119A); experiment: NanoBRET displacement binding assay, Nluc-NPR-11 Q^3.32A variant; parameters: species or system C. elegans
[6] = molecular target: T2, NPR-1; conditions: read-out: EC50 at NPR-1; ref [13]; cited from earlier work
[7] = molecular target: NPR-1 mutants (Caenorhabditis elegans, UniProt Q18534, E180A); experiment: cAMP reporter gene assay; assay type: cell-based, C. elegans
[8] = molecular target: NPR-1 mutants (Caenorhabditis elegans, UniProt Q18534, E180D); experiment: cAMP reporter gene assay; assay type: cell-based, C. elegans
[9] = test system: NPR-1 mutants; experiment: cAMP reporter gene assay; assay type: cell-based, C. elegans; conditions: mutation of T^2.61 and Q^3.32 of NPR-1
[10] = molecular target: NPR-1 mutants (Caenorhabditis elegans, UniProt Q18534, D315A); experiment: cAMP reporter gene assay; assay type: cell-based, C. elegans; conditions: NPR-1 D^7.26A mutant
[11] = molecular target: NPR-1 mutants (Caenorhabditis elegans, UniProt Q18534, D316A); experiment: cAMP reporter gene assay; assay type: cell-based, C. elegans; conditions: NPR-1 D^7.27A mutant
[12] = molecular target: NPR-1 mutants (Caenorhabditis elegans, UniProt Q18534, E180Q); experiment: cAMP reporter gene assay; assay type: cell-based, C. elegans
[13] = molecular target: NPR-1 mutants (Caenorhabditis elegans, UniProt Q18534, E301A); experiment: cAMP reporter gene assay; assay type: cell-based, C. elegans
[14] = molecular target: NPR-1 mutants (Caenorhabditis elegans, UniProt Q18534, D303A/D304A/E301A); experiment: cAMP reporter gene assay; assay type: cell-based, C. elegans
[15] = molecular target: NPR-1 mutants (Caenorhabditis elegans, UniProt Q18534, E301D); experiment: cAMP reporter gene assay; assay type: cell-based, C. elegans
[16] = molecular target: NPR-11 mutants (Caenorhabditis elegans, UniProt Q18179, E199A); experiment: cAMP reporter gene assay; assay type: cell-based, C. elegans; conditions: NPR-11 E^5.26A
[17] = test system: NPR-11 mutants; experiment: cAMP reporter gene assay; assay type: cell-based, C. elegans
[18] = molecular target: NPR-11 mutants (Caenorhabditis elegans, UniProt Q18179, E196Q); experiment: cAMP reporter gene assay; assay type: cell-based, C. elegans
[19] = molecular target: NPR-11 mutants (Caenorhabditis elegans, UniProt Q18179, E196D); experiment: cAMP reporter gene assay; assay type: cell-based, C. elegans; conditions: NPR-11 E^5.23D
[20] = molecular target: NPR-11 mutants (Caenorhabditis elegans, UniProt Q18179, F307A); experiment: cAMP reporter gene assay; assay type: cell-based, C. elegans; conditions: NPR-11 F^7.35A
[21] = molecular target: NPR-11 mutants (Caenorhabditis elegans, UniProt Q18179, E196A); experiment: cAMP reporter gene assay; assay type: cell-based, C. elegans
[22] = molecular target: NPR-11 mutants (Caenorhabditis elegans, UniProt Q18179, T96A); experiment: cAMP reporter gene assay; assay type: cell-based, C. elegans; conditions: NPR-11 T^2.61A
[23] = molecular target: NPR-11 mutants (Caenorhabditis elegans, UniProt Q18179, Q119H); experiment: cAMP reporter gene assay; assay type: cell-based, C. elegans; conditions: NPR-11 Q^3.32H
Sequence of NPR-11 mutants (Caenorhabditis elegans, UniProt Q18179, Q119H) (Q18179 whole entry Q119H): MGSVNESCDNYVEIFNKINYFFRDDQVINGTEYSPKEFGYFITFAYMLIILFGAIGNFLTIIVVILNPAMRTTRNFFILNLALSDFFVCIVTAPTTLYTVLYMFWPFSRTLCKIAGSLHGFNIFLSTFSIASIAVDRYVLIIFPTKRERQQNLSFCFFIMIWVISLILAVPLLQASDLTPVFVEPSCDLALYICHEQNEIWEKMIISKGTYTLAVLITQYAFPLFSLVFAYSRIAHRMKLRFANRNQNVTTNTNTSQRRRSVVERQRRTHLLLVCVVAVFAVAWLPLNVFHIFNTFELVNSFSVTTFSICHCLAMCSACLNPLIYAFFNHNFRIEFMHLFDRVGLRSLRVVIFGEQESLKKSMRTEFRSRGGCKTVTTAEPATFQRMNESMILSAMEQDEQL

Sequence of NPR-11 mutants (Caenorhabditis elegans, UniProt Q18179, Q119A) (Q18179 whole entry Q119A): as the sequence (Q18179 whole entry Q119H) above, with H119A counted along it
Sequence of NPR-1 mutants (Caenorhabditis elegans, UniProt Q18534, E180D) (Q18534 whole entry E180D): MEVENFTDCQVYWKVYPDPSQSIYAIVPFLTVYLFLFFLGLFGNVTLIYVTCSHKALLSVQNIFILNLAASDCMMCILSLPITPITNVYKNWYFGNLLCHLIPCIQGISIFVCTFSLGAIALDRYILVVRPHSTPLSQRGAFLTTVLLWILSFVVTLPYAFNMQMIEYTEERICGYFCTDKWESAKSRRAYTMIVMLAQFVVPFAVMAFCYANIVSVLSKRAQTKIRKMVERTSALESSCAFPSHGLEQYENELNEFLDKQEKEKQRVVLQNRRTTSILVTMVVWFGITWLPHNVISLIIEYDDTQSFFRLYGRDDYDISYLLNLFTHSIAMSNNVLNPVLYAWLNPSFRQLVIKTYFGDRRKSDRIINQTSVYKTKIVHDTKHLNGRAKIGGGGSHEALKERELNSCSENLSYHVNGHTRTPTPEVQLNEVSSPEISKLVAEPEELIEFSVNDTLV
Sequence of NPR-1 mutants (Caenorhabditis elegans, UniProt Q18534, E301A) (Q18534 whole entry E301A): as the sequence (Q18534 whole entry E180D) above, with D180E, E301A counted along it
Sequence of NPR-11 mutants (Caenorhabditis elegans, UniProt Q18179, E196A) (Q18179 whole entry E196A): as the sequence (Q18179 whole entry Q119H) above, with H119Q, E196A counted along it
Sequence of NPR-11 mutants (Caenorhabditis elegans, UniProt Q18179, T96A) (Q18179 whole entry T96A): as the sequence (Q18179 whole entry Q119H) above, with T96A, H119Q counted along it
Sequence of NPR-1 mutants (Caenorhabditis elegans, UniProt Q18534, E301D) (Q18534 whole entry E301D): as the sequence (Q18534 whole entry E180D) above, with D180E, E301D counted along it
Sequence of NPR-1 mutants (Caenorhabditis elegans, UniProt Q18534, E180A) (Q18534 whole entry E180A): as the sequence (Q18534 whole entry E180D) above, with D180A counted along it
Sequence of NPR-1 mutants (Caenorhabditis elegans, UniProt Q18534, D315A) (Q18534 whole entry D315A): as the sequence (Q18534 whole entry E180D) above, with D180E, D315A counted along it
Sequence of Q^3.32A variant of NPR-11 (Q18179 whole entry Q119A): as the sequence (Q18179 whole entry Q119H) above, with H119A counted along it
Sequence of NPR-11 mutants (Caenorhabditis elegans, UniProt Q18179, F307A) (Q18179 whole entry F307A): as the sequence (Q18179 whole entry Q119H) above, with H119Q, F307A counted along it
Sequence of NPR-11 mutants (Caenorhabditis elegans, UniProt Q18179, E196Q) (Q18179 whole entry E196Q): as the sequence (Q18179 whole entry Q119H) above, with H119Q, E196Q counted along it
Sequence of NPR-1 mutants (Caenorhabditis elegans, UniProt Q18534, E180Q) (Q18534 whole entry E180Q): as the sequence (Q18534 whole entry E180D) above, with D180Q counted along it
Sequence of NPR-11 mutants (Caenorhabditis elegans, UniProt Q18179, E196D) (Q18179 whole entry E196D): as the sequence (Q18179 whole entry Q119H) above, with H119Q, E196D counted along it
Sequence of NPR-11 mutants (Caenorhabditis elegans, UniProt Q18179, E199A) (Q18179 whole entry E199A): as the sequence (Q18179 whole entry Q119H) above, with H119Q, E199A counted along it
Sequence of NPR-1 mutants (Caenorhabditis elegans, UniProt Q18534, D303A/D304A/E301A) (Q18534 whole entry E301A/D303A/D304A): as the sequence (Q18534 whole entry E180D) above, with D180E, E301A, D303A, D304A counted along it
Sequence of NPR-1 mutants (Caenorhabditis elegans, UniProt Q18534, D316A) (Q18534 whole entry D316A): as the sequence (Q18534 whole entry E180D) above, with D180E, D316A counted along it

Substance: [L^7A]-FLP-21: FLP-21 variant, L^7 to alanine (GLGPRPARF-NH2)
- reduction of Ki relative to FLP-21 [1]: less than 10 fold
- EC50 shift compared to FLP-21 at the same receptor mutant ([2]; NPR-11 Q^3.32A): 300 fold
- EC50 shift relative to wild type FLP-21 ([3]; wild type NPR-11): 10 fold
- EC50 shift (loss of potency) relative to wild type FLP-21 [4]: 497 fold
- reduction of Ki compared to FLP-21 [5]: 100 fold

Substance: RGPSGPLRF-NH2 [FLP-15–2]
- EC50 [6]: 22 nM

Substance: GLGPRPLRF-NH2 [FLP-21]
- EC50 [7]: > 10000 nM
- EC50 [8]: 495 nM
- EC50 shift relative to wild type receptor ([8]; NPR-1 E^5.27D): > 600 fold
- decrease of receptor activation relative to wild type receptor [9]: > 30 fold
- EC50 shift relative to wild type receptor [10]: < 5 fold
- EC50 shift relative to wild type receptor [11]: < 5 fold
- EC50 [12]: > 10000 nM
- EC50 [13]: 20 nM
- EC50 shift relative to wild type NPR-1 ([13]; NPR-1 E^6.59A): 25 fold
- EC50 [14]: > 10000 nM
- EC50 [15]: 0.13 nM
- receptor activation in words [16]: inactive
- receptor activation in words ([17]; NPR-11 E^5.26 mutated to glutamine or aspartate): behaved like wild type
- EC50 shift relative to wild type receptor ([17]; NPR-11 F^7.35 to histidine or leucine): > 200 fold
- receptor activation in words ([17]; NPR-11 T^6.59 and N^6.58 alanine mutants): wild type-like activities
- EC50 [18]: > 10000 nM
- decreased potency relative to wild type receptor [19]: > 70 fold
- receptor activation in words [20]: inactive
- EC50 [21]: > 10000 nM
- EC50 shift relative to wild type receptor [22]: 4 fold
- receptor activation in words [23]: did not affect activation
- EC50 [2]: 0.1 nM
- EC50 as fold of the wild type receptor ([2]; NPR-11 Q^3.32A): 0.002 fold
- gain of function relative to wild type receptor ([2]; NPR-11 Q^3.32A): > 500 fold
- reduced potency at NPR-11 compared to NPR-1 ([3]; EC50 NPR-11 versus EC50 NPR-1): 64 fold

Reference: PMC8380825 (Journal of molecular biology, 2021)
